Laboratory results from patent US7241579B2, “Method of screening for GPR40 ligands” (SmithKline Beecham Corporation, priority 2000, dated 2007).
Read-outs that look alike come from different tables or passages of the source.

Assays:
Format in all cases: cell-based
[1] = tested on: CHO cells expressing CRE-luciferase with no receptor; assay: CRE-luciferase reporter in CHO cells containing reporter only (no receptor); conditions: 4 hours of treatment
Protocol: (§1) Specific coupling was determined in mammalian cells using transient expression of a CRE-luciferase reporter for Gαs and stable cell-lines containing Gal4/ELK-1-luciferase reporter for Gαq/Gαi. Wild-type CHO cells were co-transfected with 3×-CRE-luciferase reporter vector and various amounts of an expression vector for GPR40. The control cells were transfected with reporter vector only. The reporter gene plasmids were produced in house but similar vectors can be purchased from Stratagene ([…]®). Cells were plated in a 24 well tissue culture plate at 1×10^4 cells/well in DMEM/F12 supplemented with 5% FBS. After 72 hours at 37° C., 5% CO2, the cells were transfected using the liposomal transfection reagent sold under the trademark LIPOFECTAME® and with the following combinations of plasmids: • A-3×-CRE-Luc • B-3×-CRE-Luc+CMV-GPR40 • C-3×-CRE-Luc+CMV-Gs coupled receptor The concentration of reporter plasmid for all wells was 0.15 μg/well. Concentrations of receptor plasmids were 0.5, 1.0, 5.0, 10.0 ng/well. After 24 hrs Cells containing 1 ng/well of receptor plasmid or no DNA control and CRE-Luc reporter were treated with fatty acid or the calcitonin which is known to act through a Gs-coupled receptor (Chakraborty, Science 251: 1078 (1991)) at concentrations indicated. […]

[2] = tested on: CHO cells containing GAL4/Elk1-luciferase reporter constructs; assay: GAL4/Elk-1-luciferase reporter in host CHO cells (reporter only), with and without pertussis toxin; conditions: 4 hours after treatment
Excerpt: (§2) To further test the coupling of GPR40 to Gαi/Gαq a Gal4/Elk-1 reporter was used. A stable, clonal reporter line was created by transfecting CHO cells with a plasmid that contains an expression construct for GAL4/Elk-1 and a GAL4-luciferase reporter construct. A similar reporter system can now be purchased from Stratagene (under the trademark […]®). An expression construct for human GPR40 which contains a G418 resistance construct was transfected into the host CHO GAL4/Elk-1 reporter cell line (10 ug plasmid DNA pCR3-GPR40) via electroporation. The cell lines were selected for with 500 ug/mL G418 until all cells in the control were dead and clones were then picked. The Gal4/Elk-1 reporter can be activated through Gq or Gi. To confirm coupling via Gi, cells were treated with pertussis toxin treatment which ADP-ribosylates Gαi preventing its interaction with receptors (Bokoch et al., J. Biol. Chem 258:2072 (1983)). Pertussis toxin has no known effect on Gαq.
(§3) Host cells and those transfected with the GPR40 construct were plated in a 96-well tissue culture plate at 2000 cells/well in DMEM/F12 supplemented with 5% FBS. After 48 hours at 37° C. at 5% CO2, the cells were placed in serum-free DMEM/F12 in the presence or absence of 1 ug/ml pertussis toxin. After 16 hours at 37° C., 5% CO2 the host cells were treated with: lysophosphatidic acid (oleoyl) (LPA) which couples through GαI to activate MAP kinase (Hordijk et al., J. Biol. Chem. 269: 645 (1994)); thrombin which couples through Gαi and Gαq (Hung et al., J. Biol. Chem. 267:20831 (1992)); or 5,8,11-Eicosatriynoic acid (a GPR40 ligand), at the concentrations indicated. The host cells containing the GPR40 construct were stimulated with or 5,8,11-Eicosatriynoic acid at the concentrations indicated. Controls for lysophosphatidic acid contained 0.5% DMSO; controls for […] contained 0.05% ethanol. Luciferase activity was assayed 4 hours after treatment using a luciferase reporter gene assay kit available under the trademark LUCLITE®, as per manufacturers instructions (Packard Bioscience).

human GPR40 [3] = target: T1, human GPR40 (Homo sapiens, UniProt O14842); assay: CRE-luciferase reporter in CHO cells co-transfected with GPR40 expression vector; parameters: expressed in transfected cells; conditions: CHO cells containing GPR40 and CRE-Luc reporter, 4 hours of treatment
Protocol: as §1

human GPR40 [4] = target: T1, human GPR40; assay: GAL4/Elk-1-luciferase reporter in CHO clones transfected with human GPR40, with and without pertussis toxin; parameters: expressed in transfected cells
Excerpt: as §2, §3

human GPR40 [5] = target: T1, human GPR40; assay: FLIPR intracellular calcium response in HEK-293 cells transiently expressing GPR40; parameters: expressed in transfected cells; host or cells: HEK-293 (transient); conditions: FLIPR, GPR40 stimulation, Additional Fatty Acid Compounds
Excerpt: The Fluorometric Imaging Plate Reader (FLIPR™, Molecular Devices, UK) measures intracellular fluorescense in multi-well microplates. Where a GPCR couples to a calcium signalling pathway, the FLIPR system can be used with cells expressing the G-protein coupled receptor and containing calcium-sensitive fluorescent dyes, to monitor the intracellular calcium flux that occurs after activation of the G-coupled receptor. See, e.g., Kirk et al., J. Biomolecular Screening, 1:75 (1996).
(§4) The assays utilized a G-protein cocktail (+GPC) that contained chimeric and promiscuous G-proteins, as is known in the art of screening orphan G-protein coupled receptors.

PGRW = assay: FLIPR calcium response in HEK-293 cells transiently expressing the 7TM receptor PGRW (GPRW); conditions: HEK-293 cells transiently expressing PGRW, + G-protein cocktail
Excerpt: as §4

HLTEX11 = assay: FLIPR calcium response in HEK-293 cells transiently expressing the 7TM receptor HLTEX11; conditions: HEK-293 cells transiently expressing HLTEX11, + G-protein cocktail
Excerpt: as §4

T1 sequence (O14842 whole entry): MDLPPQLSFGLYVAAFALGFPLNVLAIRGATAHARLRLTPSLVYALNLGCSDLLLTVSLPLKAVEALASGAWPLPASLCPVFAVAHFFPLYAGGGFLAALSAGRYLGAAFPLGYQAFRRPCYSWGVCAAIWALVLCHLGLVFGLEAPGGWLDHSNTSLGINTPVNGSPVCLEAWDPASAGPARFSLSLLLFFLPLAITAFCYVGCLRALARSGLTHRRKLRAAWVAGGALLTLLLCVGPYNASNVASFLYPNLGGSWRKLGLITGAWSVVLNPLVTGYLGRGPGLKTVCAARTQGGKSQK

Compound	luciferase production (CRE-luciferase) [1]	luciferase production (GAL4/Elk-1 reporter) [2]	luciferase production (CRE-luciferase) (human GPR40 [3])	agonist-stimulated luciferase activity after pertussis toxin treatment (human GPR40 [4]; cells containing GPR40, 1 ug/ml pertussis toxin 16 hours)	luciferase activity compared to basal (GAL4/Elk-1 reporter) (human GPR40 [4]; cells containing GPR40, 4 hours after treatment)	EC50 (human GPR40 [5]; read-out: EC50 uM)	EC50 (human GPR40 [5]; read-out: EC50)	FLIPR calcium response (PGRW)	FLIPR calcium response (HLTEX11)
CCCCCCCCC#CCC#CCC#CCCCC(=O)O [5,8,11-Eicosatriynoic acid]	no effect	no effect	no effect	not inhibited	increased luciferase activity	1.7 µM	1.7 µM		
CCCCCCCC/C=C/CCCCCCCC(=O)O [Elaidic acid]								No response was detected	No response was detected
